For orientation: LC50 means the concentration lethal to half of the exposed cells or organisms. As usually defined, the zone of inhibition is the size of the clear area around the sample on an inoculated plate. A low value points to a weaker effect on the plate. The term IC50 denotes the point on the concentration scale where inhibition reaches its midpoint. A higher IC50 goes with a need for much substance. By EC50 is commonly meant the midpoint of the concentration-response curve. A lower EC50 goes with higher potency in that assay.

From PMC6225302, “Depsidone Derivatives and a Cyclopeptide Produced by Marine Fungus Aspergillus unguis under Chemical Induction and by Its Plasma Induced Mutant” (Molecules : A Journal of Synthetic Chemistry and Natural …, 2018) come the findings set out here.

In data set [1] the test system is brine shrimp (Artemia salina) larva. The experiment in a line: Brine shrimp larva lethality test. The class given is in vivo. The following applies: brine shrimp larvae, 24 h at 28 °C; read-out: Larvicidal Activity (LC50). The protocol:
(§1) Compounds 1‒10 were evaluated for larvicidality using the brine shrimp (Artemia salina) larva lethality test. 0.15 g of frozen eggs of brine shrimp larva (purchased from Aijia Aquarium Co., Zhanjiang, China) were activated at room temperature for 12 h. After activation, eggs were added to 1 L of artificial seawater (3% sea salt), ventilated with air for 420 mL/min, then kept at a brightness at 1000 lux and incubated at 28 °C for 24 h. After incubation, the larvae were induced to the top of the separating funnel by phototaxis, and the dead ones on bottom were discharged. Then, in each well of the 96-well plate, 1 μL of test compounds (in DMSO) with different concentrations and 99 μL of seawater containing 20‒30 live larvae were added. After incubation under light at 28 °C for 24 h, recorded the numbers of dead larvae. Finally, 10 μL of the Lucus reagent were added into each well and the total number of brine shrimp larva in the well were counted. DMSO and Hg(NO3)2 were used as blank control and positive control, respectively. Lethality rate (%)=(lethality of treatment−lethality of blank control)/survival rate of blank control×100%
(§2) The brine shrimp larva LC50 value is the concentration required to kill 50% of the larvae. Likewise, the LC50 was calculated using Origin 8.0 plotting and cubic polynomial regression.

Data set [2] deals with Candida albicans (ATCC 10231). The experiment in a line: Antimicrobial paper disc diffusion method. It counts as cell-based. The following applies: Candida albicans, ATCC10231; C. albicans; 10 μg per disc; paper disc diameter 6.0 mm; mean ± SD of three replicates. Here is the method: (§3) Preliminary antimicrobial tests for compounds 1‒10 were carried out against pathogenetic strains, including Pseudomonas aeruginosa (ATCC 9027), methicillin-resistant Staphylococcus aureus (A7983, clinical isolate donated by Zhijun Yu in Dalian Friendship Hospital, Dalian, China), Vibrio parahemolyticus (ZouB, aquatic pathogen donated by Chongqing Wen in College of Fishery, Guangdong Ocean University, Zhanjiang, China), and Candida albicans (ATCC 10231) using the disc diffusion method. Muller Hinton agar (MHA) and Sabouraud agar (SA) were used for antibacterial and antifungal tests, respectively. For each sample, 10 μg was added onto paper disc (diameter of 6 mm) for tests. The minimum inhibition concentrations (MICs) of the compounds were tested using microdilution methods. Ampicillin and ketoconazole were taken as positive controls for antibacterial and antifungal tests, respectively. Solvents (MeOH and DMSO) were used as blank controls.
A general note: In agar diffusion tests the substance spreads into inoculated agar from a disc or well.

The subject of data set [3] is Pseudomonas aeruginosa (ATCC 9027). Nature of the data set: Antimicrobial paper disc diffusion method. The following applies: Pseudomonas aeruginosa, ATCC9027; P. aeruginosa; 10 μg per disc; paper disc diameter 6.0 mm; mean ± SD of three replicates. The class given is cell-based. The protocol:
as §3

Data set [4] concerns Vibrio parahemolyticus (ZouB). The experiment in a line: Antimicrobial paper disc diffusion method. It counts as cell-based. The following applies: Vibrio; V. parahemolyticus; incomplete inhibition; 10 μg per disc; paper disc diameter 6.0 mm; mean ± SD of three replicates. The protocol: as §3
The subject of data set [5] is methicillin-resistant Staphylococcus aureus (A7983, clinical isolate). Nature of the data set: Antimicrobial paper disc diffusion method. The class given is cell-based. Particulars: Staphylococcus aureus, MRSA. The protocol: as §3
The test system of data set [6] is Candida albicans (ATCC 10231). The experiment in a line: Antimicrobial microdilution method (MIC). It counts as cell-based. Particulars: ATCC10231, C. albicans. The protocol:
as §3
(Broth dilution looks for growth in wells or tubes with falling amounts of substance.)

Data set [7] concerns Pseudomonas aeruginosa (ATCC 9027). Nature of the data set: Antimicrobial microdilution method (MIC). The following applies: ATCC9027, P. aeruginosa. It counts as cell-based. Here is the method:
as §3

For data set [8], the system named is methicillin-resistant Staphylococcus aureus (A7983, clinical isolate). The experiment in a line: Antimicrobial microdilution method (MIC). It counts as cell-based. Particulars: MRSA. The protocol: as §3
Data set [9] has as its system Vibrio parahemolyticus (ZouB). Nature of the data set: microbe, parasite or virus in culture. Particulars: Vibrio. It counts as cell-based. The protocol:
as §3

Data set [10] concerns the target T1, Acetylcholinesterase (AChE, from electric eels) (Electrophorus electricus, UniProt O42275).
T1 construct: purchased Sigma-Aldrich
Nature of the data set: AChE inhibition assay (modified Ellman's method). The class given is biochemical. Particulars: AChE Inhibitory Activity (IC50), 0.2 U/mL, 37 °C. The protocol: Acetylcholinesterase (AChE, from electric eels), acetythiocholine iodide (ATCh), 5,5-dithiobis-(2-nitrobenzoic acid) (DTNB), and bovine serum albumin (BSA, A1933) were purchased from Sigma-Aldrich. 100 mM PBS (pH = 7.4) was prepared with K2HPO4 and KH2PO4. In vitro AChE inhibitory activity was measured in 96-well plates using modified Ellman’s methods. […] Each well contained 1 μL of prepared sample, 49 μL of PBS, 10 μL of enzyme with a final concentration of 0.2 U/mL in BSA ([…] in PBS), and 20 μL of DTNB (5 mM in PBS). Then, the plates were preincubated at 37 °C for 10 min. Afterwards, 20 μL of ATCh (10 mM in PBS) was added into the well. After incubation at 37 °C for 20 min, the 96-well plates were read at 405 nm on the microplate reader, and the inhibition ratios to AChE were calculated using the following equation, where Asample blank stands for the absorbance of a well without enzyme, Asample stands for the absorbance of the treatment, Acontorl stands for the absorbance of the well without the sample, and Ablank stands for the absorbance of the well without the sample and enzyme. Donepezil was taken as a positive control. Inhibition of AChE (%)=[(Acontrol−Ablank)−(Asample−Asample blank)]/(Acontrol−Ablank)×100%
The inhibition rates and concentration logarithm (lnC) values were imported into the Origin 8.0 software (OriginLab Co., Ltd., Northampton, MA, USA). The cubic polynomial regression equation was used to calculate ln(IC50). Then, IC50 was calculated using Microsoft Excel.

A short description of data set [11]: DPPH free radical scavenging assay. Particulars: 0.16 mM DPPH, 30 min in darkness at room temperature. The protocol:
The free radical scavenging potentials of compounds 1‒10 were evaluated in 96-well plates using the DPPH free radical scavenging assay described by Sharma and Bhat. A total of 100 μL of the reaction mixture was composed of 50 μL of 0.16 mM DPPH (Sigma-Aldrich, St. Louis, MO, USA) in methanol and 50 μL of the test compound (in DMSO) with different concentrations (Asample). The reaction mixture was incubated for 30 min in darkness at room temperature. Meanwhile, 50 μL of 0.16 mM DPPH with 50 μL of DMSO was used as control (Acontrol), 50 μL of methanol and 50 μL of different concentrations of the test compound in DMSO were used as the sample blanks (Asample blank), 50 μL methanol with 50 μL DMSO was used as the blank (Ablank), while vitamin C was taken as a positive control. The absorbance was measured at 517 nm on the microplate reader. Scavenging capacity (%)=[(Acontrol−Ablank)−(Asample−Asample blank)]/(Acontrol−Ablank)×100%
The EC50 value is the concentration required to scavenge 50% of DPPH radicals. Likewise, the EC50 was calculated using Origin 8.0 plotting and cubic polynomial regression.
In general terms: DPPH is a stable violet radical that fades when it is reduced.

A short description of data set [12]: Brine shrimp larva lethality test. The following applies: Artemia salina (brine shrimp) larvae, live brine shrimp larvae in 96-well plate, other: immersion in seawater containing the compound, 24 h at 28 °C, read-out: Larvicidal Activity (LC50). The class given is in vivo, Artemia salina. Here is the method: as §1, §2

In brackets after ≈: the same amount, converted by molar mass. Several values for one entry are separate records, joined by “and”; a condition that tells them apart may be missing. Equal entries are not always repeated. Some results are limits rather than exact numbers.

T1 sequence (O42275 24-633): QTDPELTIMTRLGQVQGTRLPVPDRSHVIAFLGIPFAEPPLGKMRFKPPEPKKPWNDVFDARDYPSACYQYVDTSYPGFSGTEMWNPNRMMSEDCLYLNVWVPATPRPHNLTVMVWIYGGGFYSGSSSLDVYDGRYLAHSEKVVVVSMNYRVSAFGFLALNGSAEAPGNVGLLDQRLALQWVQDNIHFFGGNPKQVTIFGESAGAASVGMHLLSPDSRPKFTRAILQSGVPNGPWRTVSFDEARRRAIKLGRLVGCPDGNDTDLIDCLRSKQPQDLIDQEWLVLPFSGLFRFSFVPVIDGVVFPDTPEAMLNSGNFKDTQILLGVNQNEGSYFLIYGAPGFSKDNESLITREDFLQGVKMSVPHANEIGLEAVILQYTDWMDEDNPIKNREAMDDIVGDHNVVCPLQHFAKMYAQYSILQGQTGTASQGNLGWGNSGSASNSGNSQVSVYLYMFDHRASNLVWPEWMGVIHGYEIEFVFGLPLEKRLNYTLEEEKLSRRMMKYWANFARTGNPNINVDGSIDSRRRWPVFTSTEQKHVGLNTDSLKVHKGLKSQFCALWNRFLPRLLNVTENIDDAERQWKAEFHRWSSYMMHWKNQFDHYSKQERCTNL

For the compound `O=[N+]([O-])[O-].O=[N+]([O-])[O-].[Hg+2]` [Hg(NO3)2, reference compound], the LC50 in [1] came out at 77 µM.
As to `CC=C(C)c1c(Cl)c(O)c(C)c2c1Oc1cc(O)c(Cl)c(C)c1C(=O)O2` [Compound 7, aspergillusidone C], the zone of inhibition at 10 µg/disc in data set [2] stood at 7.9 ± 0.2 mm; in data set [3] it was 10 mm; in data set [4] it was 9.7 ± 0.6 mm; in data set [5], 13.7 ± 2.3 mm. For the same compound, the MIC was greater than 102 µM in data set [6], 25.6 µM (≈ 10.1 µg/mL) in data set [7], greater than 102 µM in data set [8] and greater than 102 µM in [9]. In [10], this compound came in with an IC50 greater than 102 µM. The compound also had an EC50 in data set [11] greater than 102 µM. For the same compound, the LC50 at 24 h in [12] worked out at 72 µM.
Take `CC=C(C)c1c(Br)c(O)c(C)c2c1Oc1c(Br)c(O)cc(C)c1C(=O)O2` [Compound 5, aspergillusidone F]: the zone of inhibition at 10 µg/disc came out at 7.5 ± 0.6 mm in [2], 11.9 ± 0.2 mm in data set [3], 6.3 ± 0.6 mm in data set [4] and 14.5 ± 0.6 mm in data set [5]. In addition, the MIC in data set [6] is greater than 102 µM; in [7] it was 6.4 µM (≈ 3.1 µg/mL); in [8] it was 25.6 µM (≈ 12.4 µg/mL); in [9], greater than 102 µM. Also, in [10], the IC50 is greater than 102 µM. This compound also showed an EC50 in [11] greater than 102 µM. Besides, in data set [12], the LC50 at 24 h is 12.8 µM.
Turning to `CC=C(C)c1c2c(c(C)c(O)c1C(=O)O)OC(=O)c1c(C)cc(O)cc1O2` [Compound 9, aspergillusidone A], the zone of inhibition at 10 µg/disc came to 15.5 ± 2.2 mm in data set [2], 16 mm in data set [3], 8.3 ± 0.6 mm in data set [4] and 17.7 ± 0.6 mm in [5]. Further, the MIC in [6] was 6.4 µM (≈ 2.37 µg/mL); in data set [7], 102 µM (≈ 37.9 µg/mL); in data set [8], 12.8 µM (≈ 4.74 µg/mL); in [9], greater than 102 µM. Moreover, the IC50 in [10] was 56.7 µM and 56.8 µM. Further, the EC50 in data set [11] was greater than 102 µM. For the same compound, the LC50 at 24 h in [12] stood at 51.2 µM.
